Structures are written as SMILES.

The term inhibition denotes the change of the read-out against control, counted positive when it falls.

Holding throughout (format): biochemical
The target in one experiment is T1, Aurora-A (h) (Homo sapiens, UniProt O14965).
T1 construct: purchased Upstate Ltd
T1 sequence (O14965 1-403): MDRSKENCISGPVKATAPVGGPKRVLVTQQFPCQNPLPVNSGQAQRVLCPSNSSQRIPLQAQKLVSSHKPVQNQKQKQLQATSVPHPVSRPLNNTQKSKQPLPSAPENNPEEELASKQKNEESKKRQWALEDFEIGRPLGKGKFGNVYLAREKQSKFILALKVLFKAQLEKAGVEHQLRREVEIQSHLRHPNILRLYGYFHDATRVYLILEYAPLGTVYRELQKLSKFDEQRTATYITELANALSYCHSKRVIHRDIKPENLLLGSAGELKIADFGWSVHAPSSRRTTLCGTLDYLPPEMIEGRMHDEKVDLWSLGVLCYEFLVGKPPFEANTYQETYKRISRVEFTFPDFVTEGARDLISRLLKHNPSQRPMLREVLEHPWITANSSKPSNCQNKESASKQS
Kind of experiment: Aurora-A (h) kinase assay (Upstate, 33P-ATP filtermat). The settings on record: 100 uM of inhibitor, ATP 15 uM; for inhibition at 100 µM: read-out: AuroraA (h) % inhibition. Here is the method: (§1) The compounds of the invention prepared in Examples 1-32 were tested for kinase inhibition against a range of common protein kinases. All kinase assays were conducted at Upstate Ltd, Gemini Crescent, Dundee Technology Park, Dundee, DD2 1SW, UK in accordance with its standard protocols as follows:
In a final reaction volume of 25 μl, Aurora-A (h) (5-10 mU) is incubated with 8 mM MOPS pH 7.0, 0.2 mM EDTA, 200 μM LRRASLG (Kemptide), 10 mM MgAcetate and […]-33P-ATP] (specific activity approx. 500 cpm/pmol, concentration as required). The reaction is initiated by the addition of the MgATP mix. After incubation for 40 minutes at room temperature, the reaction is stopped by the addition of 5 μl of a 3% phosphoric acid solution. 10 μl of the reaction is then spotted onto a P30 filtermat and washed three times for 5 minutes in 50 mM phosphoric acid and once in methanol prior to drying and scintillation counting.
(§2) Data for compounds. ATP concentrations are: Arg=45 uM; abl=45 uM; AuroraA=15 uM; Chk1=90 uM; KDR=90 uM; P70S6=15 uM. Figures represent the % inhibition when tested at 100 uM of inhibitor.

Another experiment addresses T2, CHK1 (h) (Homo sapiens, UniProt O14757).
T2 construct: purchased Upstate Ltd
T2 sequence (O14757 1-476): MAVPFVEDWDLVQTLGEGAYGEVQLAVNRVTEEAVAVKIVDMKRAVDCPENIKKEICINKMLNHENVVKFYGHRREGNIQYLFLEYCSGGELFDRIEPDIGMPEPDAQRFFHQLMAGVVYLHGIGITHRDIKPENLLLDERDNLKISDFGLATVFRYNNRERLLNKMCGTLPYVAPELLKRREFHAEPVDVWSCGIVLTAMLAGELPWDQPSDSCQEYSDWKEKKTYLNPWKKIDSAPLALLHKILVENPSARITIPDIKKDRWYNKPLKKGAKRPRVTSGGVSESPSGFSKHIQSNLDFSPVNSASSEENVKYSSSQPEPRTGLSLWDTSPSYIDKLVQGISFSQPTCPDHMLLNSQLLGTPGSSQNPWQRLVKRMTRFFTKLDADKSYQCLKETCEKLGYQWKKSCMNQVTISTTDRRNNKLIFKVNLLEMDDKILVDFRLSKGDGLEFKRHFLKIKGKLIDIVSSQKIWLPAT
Kind of experiment: CHK1 (h) kinase assay (Upstate, 33P-ATP filtermat). The settings on record: 100 uM of inhibitor; ATP 90 uM. Here is the method: as §1
In a final reaction volume of 25 μl, CHK1 (h) (5-10 mU) is incubated with 8 mM MOPS pH 7.0, 0.2 mM EDTA, 200 μM […], 10 mM MgAcetate and […]-33P-ATP] (specific activity approx. 500 cpm/pmol, concentration as required). The reaction is initiated by the addition of the MgATP mix. After incubation for 40 minutes at room temperature, the reaction is stopped by the addition of 5 μl of a 3% phosphoric acid solution. 10 μl of the reaction is then spotted onto a P30 filtermat and washed three times for 5 minutes in 75 mM phosphoric acid and once in methanol prior to drying and scintillation counting.
as §2

In another experiment the target is T3, p70S6K (h) (Homo sapiens, UniProt P23443).
T3 construct: purchased Upstate Ltd
T3 sequence (P23443 whole entry): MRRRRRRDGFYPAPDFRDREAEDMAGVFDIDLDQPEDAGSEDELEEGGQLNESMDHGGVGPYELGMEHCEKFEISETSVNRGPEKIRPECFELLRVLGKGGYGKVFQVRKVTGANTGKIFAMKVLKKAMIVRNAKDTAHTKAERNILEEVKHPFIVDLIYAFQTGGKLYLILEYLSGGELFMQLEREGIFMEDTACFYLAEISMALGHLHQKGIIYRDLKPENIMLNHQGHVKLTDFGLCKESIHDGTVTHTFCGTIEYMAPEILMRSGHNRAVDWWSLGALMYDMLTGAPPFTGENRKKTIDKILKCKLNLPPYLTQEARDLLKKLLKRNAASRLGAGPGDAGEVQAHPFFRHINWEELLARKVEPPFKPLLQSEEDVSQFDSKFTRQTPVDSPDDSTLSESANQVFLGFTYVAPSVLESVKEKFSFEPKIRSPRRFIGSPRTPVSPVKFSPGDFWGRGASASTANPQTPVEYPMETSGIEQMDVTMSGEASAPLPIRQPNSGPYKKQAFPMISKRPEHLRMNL
Kind of experiment: p70S6K (h) kinase assay (Upstate, 33P-ATP filtermat). The settings on record: 100 uM of inhibitor, ATP 15 uM; for inhibition at 100 µM: read-out: P70S6 (h) % inhibition. As to the method:
as §1
(§3) In a final reaction volume of 25 μl, p70S6K (h) (5-10 mU) is incubated with 8 mM MOPS pH 7.0, 0.2 mM EDTA, 100 μM KKRNRTLTV, 10 mM MgAcetate and [[…]-33P-ATP] (specific activity approx. 500 cpm/pmol, concentration as required). The reaction is initiated by the addition of the MgATP mix. After incubation for 40 minutes at room temperature, the reaction is stopped by the addition of 5 μl of a 3% phosphoric acid solution. 10 μl of the reaction is then spotted onto a P30 filtermat and washed three times for 5 minutes in 75 mM phosphoric acid and once in methanol prior to drying and scintillation counting.
as §2

The target in another experiment is T4, KDR (h) (Homo sapiens, UniProt P35968).
T4 construct: purchased Upstate Ltd
T4 sequence (P35968 20-1356): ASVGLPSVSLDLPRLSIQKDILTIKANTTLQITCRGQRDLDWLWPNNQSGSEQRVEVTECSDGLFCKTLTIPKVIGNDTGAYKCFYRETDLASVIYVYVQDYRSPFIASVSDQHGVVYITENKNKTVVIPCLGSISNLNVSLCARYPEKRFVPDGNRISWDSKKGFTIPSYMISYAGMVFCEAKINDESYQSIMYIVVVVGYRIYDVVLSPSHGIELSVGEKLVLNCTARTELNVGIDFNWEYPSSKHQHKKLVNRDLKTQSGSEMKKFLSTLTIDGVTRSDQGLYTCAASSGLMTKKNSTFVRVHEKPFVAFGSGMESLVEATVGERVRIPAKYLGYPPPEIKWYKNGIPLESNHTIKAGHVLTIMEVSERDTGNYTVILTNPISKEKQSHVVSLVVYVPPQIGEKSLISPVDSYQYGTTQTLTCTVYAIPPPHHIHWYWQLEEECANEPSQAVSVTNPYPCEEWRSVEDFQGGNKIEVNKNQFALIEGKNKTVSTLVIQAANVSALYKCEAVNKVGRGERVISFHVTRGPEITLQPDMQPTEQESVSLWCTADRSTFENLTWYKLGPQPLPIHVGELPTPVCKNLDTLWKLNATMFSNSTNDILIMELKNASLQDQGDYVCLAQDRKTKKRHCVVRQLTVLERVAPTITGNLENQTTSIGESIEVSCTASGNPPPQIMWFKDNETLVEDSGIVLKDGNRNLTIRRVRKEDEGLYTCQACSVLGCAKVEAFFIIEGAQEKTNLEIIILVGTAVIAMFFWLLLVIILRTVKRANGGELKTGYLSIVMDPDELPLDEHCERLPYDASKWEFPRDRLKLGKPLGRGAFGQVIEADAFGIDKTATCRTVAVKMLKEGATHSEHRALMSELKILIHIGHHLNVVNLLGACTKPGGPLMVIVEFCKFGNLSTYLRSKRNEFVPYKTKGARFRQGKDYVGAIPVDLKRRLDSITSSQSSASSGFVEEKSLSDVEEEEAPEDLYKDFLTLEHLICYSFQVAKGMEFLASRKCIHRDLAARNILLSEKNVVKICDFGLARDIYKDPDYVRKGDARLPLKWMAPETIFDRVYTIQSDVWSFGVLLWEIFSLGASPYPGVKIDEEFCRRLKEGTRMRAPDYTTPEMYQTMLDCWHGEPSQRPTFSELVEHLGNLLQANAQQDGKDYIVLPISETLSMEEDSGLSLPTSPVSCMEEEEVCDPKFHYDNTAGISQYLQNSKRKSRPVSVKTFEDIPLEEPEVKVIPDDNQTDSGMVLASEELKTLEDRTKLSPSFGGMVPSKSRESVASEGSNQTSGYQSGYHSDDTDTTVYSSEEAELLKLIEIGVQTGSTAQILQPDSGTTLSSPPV
Kind of experiment: KDR (h) kinase assay (Upstate, 33P-ATP filtermat). To be noted: 100 uM of inhibitor; ATP 90 uM. Here is the method:
as §1
as §3, with “KDR” for “p70S6K”, “0.33 mg/ml myelin basic protein,” for “100 μM KKRNRTLTV,”
as §2

A further experiment has as its target T5, Abl (h) (Homo sapiens, UniProt P00519).
T5 construct: purchased Upstate Ltd
Kind of experiment: Abl (h) kinase assay (Upstate, 33P-ATP filtermat). The settings on record: 100 uM of inhibitor; ATP 45 uM. As to the method:
as §1
as §3, with “Abl” for “p70S6K”, “50” for “100”, “EAIYAAPFAKKK,” for “KKRNRTLTV,”
as §2

The target in another experiment is T6, Arg (h) (Homo sapiens, UniProt P42684).
T6 construct: purchased Upstate Ltd
T6 sequence (P42684 whole entry): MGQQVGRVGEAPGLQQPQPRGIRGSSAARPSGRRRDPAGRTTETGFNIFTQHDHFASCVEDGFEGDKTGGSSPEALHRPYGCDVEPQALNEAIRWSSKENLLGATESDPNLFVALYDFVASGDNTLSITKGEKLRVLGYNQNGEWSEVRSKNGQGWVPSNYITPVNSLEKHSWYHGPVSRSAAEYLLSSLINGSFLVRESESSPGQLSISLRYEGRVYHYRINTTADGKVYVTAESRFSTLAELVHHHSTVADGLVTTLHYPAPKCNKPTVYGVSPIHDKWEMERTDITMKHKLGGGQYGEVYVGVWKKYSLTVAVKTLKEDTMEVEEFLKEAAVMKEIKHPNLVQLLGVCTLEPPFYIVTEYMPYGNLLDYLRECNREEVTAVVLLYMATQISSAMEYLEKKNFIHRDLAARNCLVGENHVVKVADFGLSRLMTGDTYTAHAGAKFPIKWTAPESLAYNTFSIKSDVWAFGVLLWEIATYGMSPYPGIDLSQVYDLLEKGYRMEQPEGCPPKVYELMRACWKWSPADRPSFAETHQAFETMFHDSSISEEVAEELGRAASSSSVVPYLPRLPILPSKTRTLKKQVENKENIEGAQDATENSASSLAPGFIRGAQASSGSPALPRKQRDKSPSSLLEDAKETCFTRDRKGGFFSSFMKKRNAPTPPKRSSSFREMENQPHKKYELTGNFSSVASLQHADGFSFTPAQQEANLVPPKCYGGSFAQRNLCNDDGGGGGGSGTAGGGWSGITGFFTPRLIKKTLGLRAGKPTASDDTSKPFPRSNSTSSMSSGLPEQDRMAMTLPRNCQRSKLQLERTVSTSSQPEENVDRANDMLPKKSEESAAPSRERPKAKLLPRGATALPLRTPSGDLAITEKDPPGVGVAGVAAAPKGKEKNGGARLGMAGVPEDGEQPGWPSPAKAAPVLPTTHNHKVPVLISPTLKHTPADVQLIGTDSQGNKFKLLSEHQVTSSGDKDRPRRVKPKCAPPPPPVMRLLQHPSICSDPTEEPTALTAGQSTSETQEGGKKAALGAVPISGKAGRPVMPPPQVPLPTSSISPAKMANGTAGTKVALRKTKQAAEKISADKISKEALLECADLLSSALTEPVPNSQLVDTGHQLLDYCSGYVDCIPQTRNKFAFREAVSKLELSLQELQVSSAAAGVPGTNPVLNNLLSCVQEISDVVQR
Kind of experiment: Arg (h) kinase assay (Upstate, 33P-ATP filtermat). The settings on record: 100 uM of inhibitor; ATP 45 uM. As to the method: as §1
as §3, with “Arg” for “p70S6K”, “50” for “100”, “EAIYAAPFAKKK,” for “KKRNRTLTV,”
as §2

T5 sequence (P00519 whole entry): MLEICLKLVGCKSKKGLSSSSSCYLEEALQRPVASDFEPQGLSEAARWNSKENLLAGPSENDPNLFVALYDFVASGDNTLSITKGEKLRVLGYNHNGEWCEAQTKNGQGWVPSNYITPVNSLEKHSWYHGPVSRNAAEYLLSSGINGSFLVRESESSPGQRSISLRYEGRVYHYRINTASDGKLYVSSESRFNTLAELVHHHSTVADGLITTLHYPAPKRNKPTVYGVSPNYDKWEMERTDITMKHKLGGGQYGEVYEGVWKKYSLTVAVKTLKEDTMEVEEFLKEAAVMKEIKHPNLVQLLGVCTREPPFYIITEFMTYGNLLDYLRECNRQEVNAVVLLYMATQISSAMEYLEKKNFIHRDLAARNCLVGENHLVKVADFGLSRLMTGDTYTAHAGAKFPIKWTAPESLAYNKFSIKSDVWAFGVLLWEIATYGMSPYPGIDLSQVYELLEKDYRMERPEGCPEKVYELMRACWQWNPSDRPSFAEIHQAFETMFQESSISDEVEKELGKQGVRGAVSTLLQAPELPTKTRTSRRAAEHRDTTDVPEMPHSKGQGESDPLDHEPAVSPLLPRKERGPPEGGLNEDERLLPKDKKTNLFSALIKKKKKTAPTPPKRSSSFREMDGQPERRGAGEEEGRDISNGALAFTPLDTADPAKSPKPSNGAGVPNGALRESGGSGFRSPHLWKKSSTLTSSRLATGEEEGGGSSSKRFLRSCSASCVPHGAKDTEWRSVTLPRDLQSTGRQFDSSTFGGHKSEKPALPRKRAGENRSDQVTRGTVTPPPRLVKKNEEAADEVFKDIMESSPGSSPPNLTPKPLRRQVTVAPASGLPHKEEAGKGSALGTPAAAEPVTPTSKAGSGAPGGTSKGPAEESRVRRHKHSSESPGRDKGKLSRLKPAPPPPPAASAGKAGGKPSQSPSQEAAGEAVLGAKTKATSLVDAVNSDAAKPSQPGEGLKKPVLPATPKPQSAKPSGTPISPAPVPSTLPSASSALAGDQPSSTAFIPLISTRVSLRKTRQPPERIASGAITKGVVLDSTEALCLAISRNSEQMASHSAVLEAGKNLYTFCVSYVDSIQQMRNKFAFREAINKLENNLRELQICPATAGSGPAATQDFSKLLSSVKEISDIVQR

Turning to `c1ccc2nc(-c3cn[nH]c3)nnc2c1` [Example 13, 3-(1H-Pyrazol-4-yl)-benzo[1,2,4]triazine], the inhibition at 100 µM on Aurora-A (h) came to 90%; against CHK1 (h), 13%; on p70S6K (h), 92%; against KDR (h), 80%.

`Nc1nc2cc(N3CCNCC3)ccc2[n+]([O-])n1` [Example 25, 1-Oxy-6-piperazin-1-yl-benzo[1,2,4]triazin-3-ylamine]: at p70S6K (h), the “P70S6 (h) % inhibition” value came to 43%. Also, the “KDR (h) % inhibition” value on KDR (h) amounted to 18%.

On CHK1 (h), `O=C(Nc1ccc2nncnc2c1)Nc1cnccn1` [Example 18, 1-Benzo[1,2,4]triazin-6-yl-3-pyrazin-2-yl-urea] registered an inhibition at 100 µM of 23%.

In the case of `c1ccc2nc(-c3cc[nH]n3)nnc2c1` [Example 16, 3-(1H-Pyrazol-3-yl)-benzo[1,2,4]triazine], the inhibition at 100 µM at Aurora-A (h) amounted to 41%; at p70S6K (h), 10%; against KDR (h) it was 17%.

Regarding `Nc1nnc2ccc(N3CCNCC3)cc2n1` [Example 26, 6-Piperazin-1-yl-benzo[1,2,4]triazin-3-ylamine], the results for the inhibition at 100 µM on p70S6K (h) and against KDR (h) were 37% and 98%, respectively.

Take `c1ccc(-c2ccc3nnc(Nc4cccnc4)nc3c2)cc1` [Example 23, (6-Phenyl-benzo[1,2,4]triazin-3-yl)-pyridin-3-yl-amine]: the values for the inhibition at 100 µM at Abl (h), at Aurora-A (h) and on Arg (h) were 80%, 68% and 83%, respectively.

Take `Nc1nnc2ccc(OCCc3ccc(Cl)c(Cl)c3)cc2n1` [Example 30, 6-[2-(3,4-Dichloro-phenyl)-ethoxy]-benzo[1,2,4]triazin-3-ylamine]: the inhibition at 100 µM is 52% at p70S6K (h) and 11% against KDR (h).

As to `Nc1nnc2cc(-c3ccn[nH]3)ccc2n1` [Example 14, 7-(2H-Pyrazol-3-yl)-benzo[1,2,4]triazin-3-ylamine], the inhibition at 100 µM is 81% at Aurora-A (h), 20% against CHK1 (h), 47% at p70S6K (h) and 89% at KDR (h).

As to `[O-][n+]1nc(Nc2cccnc2)nc2cc(-c3ccccc3)ccc21` [Example 24, (1-Oxy-6-phenyl-benzo[1,2,4]triazin-3-yl)-pyridin-3-yl-amine], at Aurora-A (h), the “AuroraA (h) % inhibition” value was determined as 92%.

With `Cc1cc(Nc2nc3ccccc3[n+]([O-])n2)n[nH]1` [Example 10, (5-Methyl-1H-pyrazol-3-yl)-(1-oxy-benzo[1,2,4]triazin-3-yl)-amine], the “AuroraA (h) % inhibition” value at Aurora-A (h) is given as 40%. In addition, the “Chk1 (h) % inhibition” value at CHK1 (h) amounted to 20%.

With `[O-][n+]1nc(Nc2cccnc2)nc2cc(Cl)ccc21` [Example 22, (6-Chloro-1-oxy-benzo[1,2,4]triazin-3-yl)-pyridin-3-yl-amine], the “AuroraA (h) % inhibition” value at Aurora-A (h) came out at 82%.

For `Nc1nc2cc(OCCc3ccc(Cl)c(Cl)c3)ccc2[n+]([O-])n1` [Example 29, 6-[2-(3,4-Dichloro-phenyl)-ethoxy]-1-oxy-benzo[1,2,4]triazin-3-ylamine], the “P70S6 (h) % inhibition” value on p70S6K (h) is reported as 49%. On KDR (h), the “KDR (h) % inhibition” value was 0%.

For `[O-][n+]1nc(Nc2cccnc2)nc2ccccc21` [Example 4, (1-Oxy-benzo[1,2,4]triazin-3-yl)-pyridin-3-yl-amine], the “AuroraA (h) % inhibition” value on Aurora-A (h) is reported as 64%. The “Chk1 (h) % inhibition” value at CHK1 (h) is recorded as 14%. Besides, the “P70S6 (h) % inhibition” value at p70S6K (h) amounted to 0%.

Compound `CN(C)CCCOc1ccc(Cl)cc1NC(=O)Nc1nnc2ccccc2n1` [Example 9, 1-Benzo[1,2,4]triazin-3-yl-3-[5-chloro-2-(3-dimethylamino-propoxy)-phenyl]-urea] came in with an inhibition at 100 µM against CHK1 (h) of 93%.

`[O-][n+]1nc(-c2cc[nH]n2)nc2ccccc21` [Example 17, 3-(1H-Pyrazol-3-yl)-benzo[1,2,4]triazine 1-oxide]: the inhibition at 100 µM at Aurora-A (h) was 39%; on p70S6K (h), 0%; against KDR (h) it was 0%.

`Cl.Nc1nnc2ccc(OCC3CCNCC3)cc2n1` [Example 28, 6-(Piperidin-4-ylmethoxy)-benzo[1,2,4]triazin-3-ylamine.hydrochloride]: the “P70S6 (h) % inhibition” value at p70S6K (h) amounted to 47%. For the same compound, the “KDR (h) % inhibition” value on KDR (h) is 6%.

In the case of `[O-][n+]1nc(-c2cn[nH]c2)nc2ccccc21` [Example 12, 3-(1H-Pyrazol-4-yl)-benzo[1,2,4]triazine 1-oxide], the inhibition at 100 µM was determined as 69% on Aurora-A (h), 3% against CHK1 (h), 87% on p70S6K (h) and 97% on KDR (h).

As to `Nc1nc2ccc(-c3ccn[nH]3)cc2[n+]([O-])n1` [Example 15, 1-Oxy-7-(2H-pyrazol-3-yl)-benzo[1,2,4]triazin-3-ylamine], at Aurora-A (h), the “AuroraA (h) % inhibition” value was 90%. Besides, at CHK1 (h), the “Chk1 (h) % inhibition” value is on record as 10%. Further, on p70S6K (h), the “P70S6 (h) % inhibition” value worked out at 29%. Moreover, on KDR (h), the “KDR (h) % inhibition” value was found to be 46%.

Take `Cl.Nc1nc2cc(OCC3CCNCC3)ccc2[n+]([O-])n1` [Example 27, 1-Oxy-6-(piperidin-4-ylmethoxy)-benzo[1,2,4]triazin-3-ylamine.hydrochloride]: the “P70S6 (h) % inhibition” value at p70S6K (h) stood at 62%. For the same compound, the “KDR (h) % inhibition” value on KDR (h) was found to be 3%.

The record behind these values is patent US20080234276A1, “Heterocyclic Triazines as Hypoxic Selective Protein Kinase Inhibitors” (SENTINEL ONCOLOGY LIMITED, priority 2005, published 2008).
